Experimental data: ChEMBL document CHEMBL1201862, “PubChem BioAssay data set” (2004)
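96-well plates; 48 h exposure; 5 concentrations. Endpoints by linear interpolation between flanking doses. Not reached: highest tested concentration assigned. GI50 marks 50% less growth.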 Activity calls are given as the source filed them. Cut-off read from the data, not from the text of the source: active = GI50 up to about 1.1 µM and inactive = higher.

Assays:
Experiment in all cases: DTP human tumour cell line panel, 48 h
NCI-H460 = tested on: NCI-H460
SR = tested on: SR
MOLT-4 = tested on: MOLT-4
HL-60 = tested on: HL-60
HCT-15 = tested on: HCT-15
M14 = tested on: M14
LOX IMVI = tested on: LOX IMVI
HCC 2998 = tested on: HCC 2998
HOP-92 = tested on: HOP-92
NCI-H522 = tested on: NCI-H522
SK-MEL-28 = tested on: SK-MEL-28
A498 = tested on: A498
SK-OV-3 = tested on: SK-OV-3
NCI-H226 = tested on: NCI-H226
SNB-75 = tested on: SNB-75
SNB-19 = tested on: SNB-19
NCI/ADR-RES = tested on: NCI/ADR-RES
Hs-578T = tested on: Hs-578T
T47D = tested on: T47D
BT-549 = tested on: BT-549

Row | SMILES | GI50 (NCI-H460) | GI50 (SR) | GI50 (MOLT-4) | GI50 (HL-60) | GI50 (HCT-15) | GI50 (M14) | GI50 (LOX IMVI) | GI50 (HCC 2998) | GI50 (HOP-92) | GI50 (NCI-H522) | GI50 (SK-MEL-28) | GI50 (A498) | GI50 (SK-OV-3) | GI50 (NCI-H226) | GI50 (SNB-75) | GI50 (SNB-19) | GI50 (NCI/ADR-RES) | GI50 (Hs-578T) | GI50 (T47D) | GI50 (BT-549)
1 | COc1ccc2c(c1)CCN1C3=C(CCC3)C(=O)C[C@@H]21 | > 100 µM (inactive) | 31.1 µM (inactive) | > 100 µM (inactive) | 23.2 µM (inactive) | > 100 µM | > 100 µM (inactive) | > 100 µM (inactive) | > 100 µM (inactive) | > 100 µM (inactive) | > 100 µM (inactive) | > 100 µM (inactive) | 62.2 µM (inactive) | > 100 µM (inactive) | > 100 µM (inactive) | 44.9 µM (inactive) | > 100 µM (inactive) | – | – | – | –
2 | C=CC1(c2ccc(Cl)c(Cl)c2)OCCO1 | > 100 µM (inactive) | 55.8 µM (inactive) | > 100 µM (inactive) | 16.6 µM (inactive) | > 100 µM | > 100 µM (inactive) | > 100 µM (inactive) | > 100 µM (inactive) | 23.2 µM (inactive) | > 100 µM (inactive) | > 100 µM (inactive) | – | > 100 µM (inactive) | 71.8 µM (inactive) | 1.48 µM (inactive) | > 100 µM (inactive) | > 100 µM (inactive) | 40.8 µM (inactive) | > 100 µM (inactive) | –
3 | CC(C)(C)[Si](C)(C)OC1/C(=C/C#N)C(n2ccc(=O)[nH]c2=O)OC1CO (stereo unspecified) | > 100 µM (inactive) | 42.1 µM (inactive) | > 100 µM (inactive) | – | – | > 100 µM (inactive) | – | – | 3.01 µM (inactive) | > 100 µM (inactive) | > 100 µM (inactive) | > 100 µM (inactive) | > 100 µM (inactive) | – | – | > 100 µM (inactive) | > 100 µM (inactive) | – | > 100 µM (inactive) | –
4 | COc1cc2c(c(OC)c1OC)-c1ccc(OC)c(=O)cc1C(NC(=O)CCCCCNc1ccc(N=[N+]=[N-])cc1[N+](=O)[O-])CC2 (stereo unspecified) | < 0.01 µM (active) | < 0.01 µM (active) | < 0.01 µM (active) | < 0.01 µM (active) | 0.0418 µM | < 0.01 µM (active) | < 0.01 µM (active) | < 0.01 µM (active) | – | < 0.01 µM (active) | < 0.01 µM (active) | < 0.01 µM (active) | < 0.01 µM (active) | < 0.01 µM (active) | 0.246 µM (active) | < 0.01 µM (active) | 0.422 µM (active) | < 0.01 µM (active) | 20.5 µM (inactive) | –
5 | CSc1ncnc2c1CCN2 | 5.37 µM (inactive) | 1.78 µM (inactive) | > 10 µM (inactive) | 4.29 µM (inactive) | > 100 µM | > 10 µM (inactive) | 6.34 µM (inactive) | > 10 µM (inactive) | 3.96 µM (inactive) | 2.73 µM (inactive) | > 10 µM (inactive) | – | > 10 µM (inactive) | > 10 µM (inactive) | > 10 µM (inactive) | > 10 µM (inactive) | > 10 µM (inactive) | 4.51 µM (inactive) | > 10 µM (inactive) | –
6 | COC(=O)C12C3C4C5(C(=O)OC)C(C1C35C(=O)N(C(C)C)C(C)C)C42C(=O)N(C(C)C)C(C)C (stereo unspecified) | > 37.6 µM (inactive) | > 50 µM (inactive) | > 50 µM (inactive) | > 36.3 µM (inactive) | > 23.3 µM | > 50 µM (inactive) | > 27.1 µM (inactive) | > 50 µM (inactive) | > 50 µM (inactive) | > 47.2 µM (inactive) | > 50 µM (inactive) | > 50 µM (inactive) | > 50 µM (inactive) | > 50 µM (inactive) | > 35.5 µM (inactive) | > 50 µM (inactive) | – | – | – | –
7 | CN(C)Cc1cc(/C=C/C(=O)c2ccc(Br)cc2)cc(CN(C)C)c1O | 19.3 µM (inactive) | – | 9.95 µM (inactive) | 6.84 µM (inactive) | – | 31.2 µM (inactive) | – | 14 µM (inactive) | – | – | 17.1 µM (inactive) | 13.6 µM (inactive) | 29.8 µM (inactive) | – | 12.5 µM (inactive) | 20.3 µM (inactive) | 36.6 µM (inactive) | – | 18.5 µM (inactive) | 15.1 µM (inactive)
